Broadly, the IC50 is the concentration that gives 50% inhibition. A word on the EC50: it is the concentration at which the effect is half-maximal.

In patent US20240067657A1, “AMIDO-SUBSTITUTED PYRIDYL COMPOUNDS AND METHODS OF USE THEREOF FOR THE TREATMENT OF HERPESVIRUSES” (Merck Sharp & Dohme LLC, priority 2020, published 2024) one finds IC50 and EC50 data, which are given here for 13 compounds.

Structures are written as SMILES. Where two headings read alike, the source gives them in different places.

Experiment [1] has as its target T1, Human cytomegalovirus DNA polymerase (Human cytomegalovirus, UniProt P08546).
T1 construct: made in house; host or cells: SF21 insect cells (baculovirus vector)
As to the kind of experiment: HCMV polymerase assay (AlphaLISA, IC50). Type of experiment: biochemical. The following applies: polymerase assay of Example 190. The method, boiled down: (§1)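 Baculovirus-expressed polymerase (HCMV 0.2 nM, VZV 0.4 nM final) preincubated 30 min at room temperature with compound in pH 7.5 HEPES buffer; reaction started with 1.6 nM DIG-primer/template and nM dNTPs including biotin-dUTP, run 60 min at 37° C. Incorporation detected by AlphaLISA; IC50 from 4-parameter fit.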
(In general: In Alpha technology, singlet oxygen from a donor bead excites a nearby acceptor bead.)

Experiment [2] concerns the target T2, varicella zoster virus DNA polymerase (Varicella-zoster virus, UniProt P09252).
T2 construct: made in house; host or cells: SF21 insect cells (baculovirus vector)
As to the kind of experiment: VZV polymerase assay (AlphaLISA, IC50). It counts as biochemical. To be noted: polymerase assay of Example 190. In a few lines:
as §1

In experiment [3] the test system is HCMV Strain AD169 in MRC-5 cells. As to the kind of experiment: Viral qPCR assay HCMV (V0/V1, V2/V3), EC50. It counts as cell-based. The method, boiled down: (§2)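 Infected cells added to compounds (10-point 3-fold series), ~72 h at 37 °C, then lysed; viral genomes by TaqMan qPCR against plasmid standard, normalized to PPIA in V0/V1 only, EC50 from 4-parameter fit. HCMV AD169, 0.05-0.1 pfu/cell, ± 50% FBS; VZV 0.04-0.1 pfu/cell; HSV-1 F 0.0005-0.004 pfu/cell.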
On the technique in general: Quantitative PCR measures a nucleic acid by following its amplification.

Experiment [4] has as its system VZV in MeWo or MRC5 cells. As to the kind of experiment: Viral qPCR assay VZV (V0/V1, V2/V3), EC50. It counts as cell-based. The method, boiled down: as §2
Experiment [5] has as its system HSV-1 Strain F in Vero or MRC5 cells. Description: Viral qPCR assay HSV-1 (V0/V1, V2/V3), EC50. It counts as cell-based. In a few lines: as §2
The mark [6] stands for this setting: Human betaherpesvirus 5, AD169, MRC5, viral qPCR assay of Example 191, read-out: HCMV Cell (EC50).
Where [7] appears, read: Human alphaherpesvirus 3, MeWo, MEWO cells, 10%, read-out: VZV Cell (EC50) MEWO 10%.
Setting [8] is: Human alphaherpesvirus 1, Vero, VERO cells, 10%, read-out: HSV1 Cell (EC50) VERO 10%.
[9] abbreviates: Human alphaherpesvirus 3, MRC5, MRC5 cells, 10%, read-out: VZV Cell (EC50) MRC5 10%.
Setting [10] is: Human alphaherpesvirus 1, MRC5, MRC5 cells, 10%, read-out: HSV1 Cell (EC50) MRC5 10%.

T2 sequence (P09252 whole entry): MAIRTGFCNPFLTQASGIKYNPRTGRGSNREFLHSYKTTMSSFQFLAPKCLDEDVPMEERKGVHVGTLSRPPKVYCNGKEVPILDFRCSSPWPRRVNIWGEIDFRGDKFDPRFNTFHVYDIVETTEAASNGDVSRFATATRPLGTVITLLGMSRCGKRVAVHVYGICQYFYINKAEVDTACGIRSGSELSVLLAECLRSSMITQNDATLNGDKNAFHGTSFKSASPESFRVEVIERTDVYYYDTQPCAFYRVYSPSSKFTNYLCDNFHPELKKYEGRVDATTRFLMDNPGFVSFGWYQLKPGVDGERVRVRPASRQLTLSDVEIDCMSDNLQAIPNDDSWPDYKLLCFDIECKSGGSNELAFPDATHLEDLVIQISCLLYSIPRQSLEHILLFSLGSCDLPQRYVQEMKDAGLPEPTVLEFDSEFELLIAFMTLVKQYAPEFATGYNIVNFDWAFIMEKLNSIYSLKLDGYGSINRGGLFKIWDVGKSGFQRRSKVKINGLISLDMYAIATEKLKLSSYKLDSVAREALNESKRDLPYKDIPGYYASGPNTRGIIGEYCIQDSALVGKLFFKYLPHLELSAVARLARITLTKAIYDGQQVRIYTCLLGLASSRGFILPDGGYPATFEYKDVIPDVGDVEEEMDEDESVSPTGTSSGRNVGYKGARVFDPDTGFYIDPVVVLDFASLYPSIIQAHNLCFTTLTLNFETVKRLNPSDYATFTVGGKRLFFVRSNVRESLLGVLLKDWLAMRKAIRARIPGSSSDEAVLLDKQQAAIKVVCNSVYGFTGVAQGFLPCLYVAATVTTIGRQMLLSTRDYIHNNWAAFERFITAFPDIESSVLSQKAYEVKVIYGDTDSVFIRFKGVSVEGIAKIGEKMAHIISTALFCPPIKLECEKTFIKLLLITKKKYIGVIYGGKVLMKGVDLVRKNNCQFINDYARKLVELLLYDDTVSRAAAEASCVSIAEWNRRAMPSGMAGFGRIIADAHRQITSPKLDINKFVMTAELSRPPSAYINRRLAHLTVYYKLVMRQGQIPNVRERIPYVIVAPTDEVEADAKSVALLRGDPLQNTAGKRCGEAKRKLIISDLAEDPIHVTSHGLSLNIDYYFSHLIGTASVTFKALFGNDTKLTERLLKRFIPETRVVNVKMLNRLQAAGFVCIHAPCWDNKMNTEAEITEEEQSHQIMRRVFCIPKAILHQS
T1 sequence (P08546 whole entry): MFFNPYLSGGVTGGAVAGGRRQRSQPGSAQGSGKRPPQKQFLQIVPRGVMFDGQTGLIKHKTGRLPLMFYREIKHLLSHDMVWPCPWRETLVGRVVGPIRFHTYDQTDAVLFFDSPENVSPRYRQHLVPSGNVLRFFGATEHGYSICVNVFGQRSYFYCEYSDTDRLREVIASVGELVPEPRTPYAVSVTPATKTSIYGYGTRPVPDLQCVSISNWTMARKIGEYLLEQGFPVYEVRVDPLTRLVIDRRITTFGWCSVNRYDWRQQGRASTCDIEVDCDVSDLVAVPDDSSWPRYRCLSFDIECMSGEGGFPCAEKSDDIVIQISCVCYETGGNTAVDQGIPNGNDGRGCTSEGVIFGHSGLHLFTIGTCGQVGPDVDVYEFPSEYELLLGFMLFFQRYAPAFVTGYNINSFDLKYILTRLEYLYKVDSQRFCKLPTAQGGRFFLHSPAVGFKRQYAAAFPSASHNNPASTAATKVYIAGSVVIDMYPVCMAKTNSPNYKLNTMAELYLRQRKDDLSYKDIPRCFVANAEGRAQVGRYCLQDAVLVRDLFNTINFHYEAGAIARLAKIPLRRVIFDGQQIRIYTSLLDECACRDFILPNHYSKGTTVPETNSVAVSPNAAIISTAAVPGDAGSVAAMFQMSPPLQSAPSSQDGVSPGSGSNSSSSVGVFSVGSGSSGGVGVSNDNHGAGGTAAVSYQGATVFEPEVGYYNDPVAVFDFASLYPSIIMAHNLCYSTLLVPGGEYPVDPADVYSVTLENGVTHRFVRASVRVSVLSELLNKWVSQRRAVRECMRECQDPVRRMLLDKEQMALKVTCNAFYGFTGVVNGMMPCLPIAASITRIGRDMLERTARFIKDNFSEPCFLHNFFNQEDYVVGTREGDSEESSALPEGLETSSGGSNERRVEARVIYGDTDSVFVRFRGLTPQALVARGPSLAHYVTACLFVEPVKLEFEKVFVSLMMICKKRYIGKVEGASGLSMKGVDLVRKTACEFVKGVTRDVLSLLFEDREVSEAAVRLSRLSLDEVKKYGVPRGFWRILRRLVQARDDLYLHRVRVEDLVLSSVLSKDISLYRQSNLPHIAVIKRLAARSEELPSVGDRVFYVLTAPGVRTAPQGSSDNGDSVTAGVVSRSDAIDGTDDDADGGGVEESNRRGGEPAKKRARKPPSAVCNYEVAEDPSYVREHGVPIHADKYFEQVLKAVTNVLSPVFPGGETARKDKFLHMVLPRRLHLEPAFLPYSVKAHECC

Regarding `Cn1cc(-c2cnc(C(=O)NCc3ccc(Cl)cc3)cc2O[C@H]2CCN3C(=O)CC[C@H]3C2)cn1` (racemic) [Compound 170], the IC50 in experiment [1] was 178 nM; in experiment [2], 87.4 nM. Besides, the EC50 is 736 nM in experiment [3] (setting [6]), 599 nM in experiment [4] (setting [7]) and 266 nM in experiment [5] (setting [8]).

For the compound `C[C@@H]1CN(C)CCN1c1cc(C(=O)NCc2ccc(Cl)cc2)ncc1OCC(F)(F)F` [Compound 176], the IC50 in experiment [1] came out at 218 nM; in experiment [2], 115 nM. Besides, the EC50 in experiment [3] (Human betaherpesvirus 5, AD169, MRC5, read-out: HCMV Cell (EC50)) was found to be 2480 nM; in experiment [4] (Human alphaherpesvirus 3, MeWo, read-out: VZV Cell (EC50) MEWO 10%), 1240 nM; in experiment [5] (Human alphaherpesvirus 1, Vero, read-out: HSV1 Cell (EC50) VERO 10%), 2180 nM.

Regarding `O=C(NCc1ccc(Cl)cc1)c1cc(O[C@H]2CCN3C(=O)OC[C@@H]3C2)c(CNC2CC2)cn1` [Compound 141], the IC50 turned out to be 77.5 nM in experiment [1] and 44.8 nM in experiment [2]. The EC50 in experiment [3] (setting [6]) worked out at 554 nM; in experiment [4] (setting [9]), 2210 nM; in experiment [5] (setting [8]), 287 nM.

For the compound `CC(C)n1ccc(-c2cnc(C(=O)NCc3ccc(Cl)cc3)cc2O[C@H]2CCN3C(=O)OC[C@@H]3C2)n1` [Compound 15], the half-maximal inhibitory concentration (IC50) in experiment [1] was found to be 29.2 nM; in experiment [2] it was 19.9 nM. Further, the 50% effective concentration (EC50) was determined as 176 nM in experiment [3] (setting [6]), 159 nM in experiment [4] (setting [7]) and 160 nM in experiment [5] (setting [8]).

On to `O=C(NCc1ccc(Cl)cc1)c1cc(O[C@H]2CCN3C(=O)OC[C@@H]3C2)c(-c2cnc(CO)s2)cn1` [Compound 22], for which the values for the IC50 in experiment [1] and in experiment [2] were 0.222 nM and 1.12 nM, respectively. Also, the EC50 was found to be 68.8 nM in experiment [3] (setting [6]), 109 nM in experiment [4] (setting [9]), 150 nM in experiment [5] (setting [10]) and 224 nM in experiment [5] (setting [8]).

As to `Cn1cc(-c2cnc(C(=O)NCc3ccc(Cl)cc3)cc2OC2CCN3C(=O)OCC3(C)C2)cn1` (centres unmarked) [Compound 159], the figures for the IC50 in experiment [1] and in experiment [2] were 59.2 nM and 19.3 nM, respectively. Moreover, the EC50 in experiment [3] (setting [6]) worked out at 441 nM; in experiment [4] (setting [7]), 277 nM; in experiment [5] (setting [8]) it was 329 nM.

In the case of `Cn1cc(-c2cnc(C(=O)NCc3ccc(Cl)cc3)cc2O[C@H]2CCN3C(=O)OC[C@@H]3C2)cn1` [Compound 29], the IC50 in experiment [1] amounted to 9.24 nM; in experiment [2] it was 7.85 nM. The EC50 in experiment [3] (setting [6]) is 107 nM; in experiment [4] (setting [9]), 109 nM; in experiment [4] (setting [7]) it was 51.6 nM; in experiment [5] (setting [10]), 102 nM; in experiment [5] (setting [8]) it was 184 nM.

Take `Cc1nsc(-c2cnc(C(=O)NCc3ccc(Cl)cc3)cc2O[C@H]2CCN3C(=O)OC[C@@H]3C2)n1` [Compound 39]: the IC50 in experiment [1] stood at 10.3 nM; in experiment [2], 1.25 nM. For the same compound, the results for the EC50 in experiment [3] (setting [6]), in experiment [4] (setting [9]) and in experiment [5] (setting [10]) were 86.7 nM, 98 nM and 60.1 nM, respectively.

In the case of `Cn1cc(-c2cnc(C(=O)NCc3ccc(Cl)cc3)cc2OC2CCC(C#N)CC2)cn1` (centres unmarked) [Compound 168], the IC50 in experiment [1] is 104 nM; in experiment [2] it was 67.6 nM. Also, the EC50 in experiment [3] (setting [6]) worked out at 1110 nM; in experiment [4] (setting [7]) it was 590 nM; in experiment [5] (setting [8]), 529 nM.

In the case of `CC(=O)N1CCC(Oc2cc(C(=O)NCc3ccc(Cl)cc3)ncc2-c2cnc(C3CC3)o2)CC1` [Compound 67], the IC50 was determined as 50.7 nM in experiment [1] and 21.7 nM in experiment [2]. For the same compound, the EC50 in experiment [3] (setting [6]) is 612 nM; in experiment [4] (setting [9]) it was 706 nM; in experiment [5] (setting [10]) it was 660 nM.

As for `Cc1ncc(-c2cnc(C(=O)NCc3ccc(Cl)cc3)cc2O[C@H]2CCN3C(=O)OC[C@@H]3C2)o1` [Compound 32], the values for the IC50 in experiment [1] and in experiment [2] were 2.73 nM and 0.55 nM, respectively. Also, the EC50 in experiment [3] (setting [6]) came to 76.8 nM; in experiment [4] (setting [9]), 106 nM; in experiment [5] (setting [10]), 75 nM.

For `Cn1cc(-c2cnc(C(=O)NCc3ccc(C#N)cc3)cc2O[C@H]2CCN3C(=O)OC[C@@H]3C2)cn1` (racemic) [Compound 95], the IC50 was determined as 38.8 nM in experiment [1] and 23.9 nM in experiment [2]. The concentration giving a half-maximal response (EC50) amounted to 181 nM in experiment [3] (setting [6]), 241 nM in experiment [4] (setting [7]) and 1920 nM in experiment [5] (setting [8]).

Turning to `O=C(NCc1ccc(Cl)cc1)c1cc(O[C@H]2CCN3C(=O)OC[C@@H]3C2)c(CN2CCCOCC2)cn1` [Compound 138], the figures for the IC50 in experiment [1] and in experiment [2] were 65.8 nM and 13.7 nM, respectively. Besides, the concentration for a half-maximal effect (EC50) in experiment [3] (setting [6]) worked out at 296 nM; in experiment [4] (setting [7]), 198 nM; in experiment [5] (setting [8]) it was 420 nM.
